Values of other authors, collected in US20090148509A1, “ENCAPSULATION AND DEAGGREGATION OF POLYENE ANTIBIOTICS USING POLY(ETHYLENE GLYCOL)-PHOSPHOLIPID MICELLES” (WISCONSIN ALUMNI RESEARCH FOUNDATION, priority 2002, published 2009).

Columns and labels:
[1] = surfactant:AmB

| critical aggregation concentration of AmB in water | Compound | molar ratio required to efficiently deaggregate AmB [1] |
| --- | --- | --- |
| – | sodium deoxycholate | greater than 40 |
| about 1.0 μg/ml | C[C@@H]1[C@H](O)[C@@H](C)/C=C/C=C/C=C/C=C/C=C/C=C/C=C/[C@H](O[C@@H]2O[C@H](C)[C@@H](O)[C@H](N)[C@@H]2O)C[C@@H]2O[C@](O)(C[C@@H](O)C[C@@H](O)[C@H](O)CC[C@@H](O)C[C@@H](O)CC(=O)O[C@H]1C)C[C@H](O)[C@H]2C(=O)O [AmB, Amphotericin B] | – |
